Source: patent publication US20250136592A1, “C-LINKED INHIBITORS OF ENL/AF9 YEATS” (Bridge Medicines, priority 2021, published 2025)
Where two headings read alike, the source gives them in different places.

Key:
ENL YEATS domain = ENL YEATS domain (Homo sapiens (Human), UniProt Q03111); assay: TR-FRET ENL Screening Assay; details: 6xHIS ENL YEATS domain binding to H3K9cr peptide
Method: Compounds of the invention were tested in a TR-FRET ENL Screening Assay. TR-FRET (time-resolved fluorescence energy transfer) can be used to quantify ENL YEATS domain binding to a crotonylated histone peptide (H3K9cr, aa1-20). Streptavidin-Europium (Eu) chelate binds the biotinylated peptide, while Anti-6×HIS ULight™ binds 6×HIS-ENL. When Eu chelate is excited at 320 nm, fluorescence resonance energy transfer (FRET) occurs if Eu and ULight are made proximal by ENL binding to the acyl-peptide.
Low control (LC) wells received 5 μL of assay buffer instead of ENL protein. […] The response at each compound concentration minus the LC value was converted to percent inhibition of the vehicle control group response (HC-LC).

[1] = system: MV4:11 (MLL-AF4 MLL) cells; assay: Cell viability assay (CellTiter-Glo), 12 days; format: cell-based; details: MV4;11 cells, 12 day, read-out: CTG_MV4, 11 12 DAY_EC50
Method: The assays were conducted over 12 days and the cells being split on days 4 and 8. […] Blank wells received cell culture medium. Plates were incubated for 4 days at 37° C. with 5% CO2. On days 4 and day 8 the cells were split and incubated for a further 4 days whilst an aliquot of cells were taken for the CTG readout. For the cell splitting, 270 nL of compounds or DMSO was added to a new 96 well cell culture plate to which 90 μL of medium plus 10 μL of cells from the original assay plate (after mixing) or 100 μL of medium (Blank wells) was added. This was repeated on day 8.
Cell viability was assessed using the CellTiter-Glo® homogeneous luminescent assay kit (Promega, G9243), according to the manufacturer's instructions. This quantifies ATP, which indicates the presence of metabolically active cells. […] The resulting data were analyzed as follows:
where vehicle are cells treated with 0.3% DMSO, Blank is culture medium. IC50 determinations were calculated by fitting the curve using XLfit (v5.3.1.3): Y=Bottom+(Top−Bottom)/(1+10^((LogIC50−X)*HillSlope)).

Chain of ENL YEATS domain (Q03111 1-138): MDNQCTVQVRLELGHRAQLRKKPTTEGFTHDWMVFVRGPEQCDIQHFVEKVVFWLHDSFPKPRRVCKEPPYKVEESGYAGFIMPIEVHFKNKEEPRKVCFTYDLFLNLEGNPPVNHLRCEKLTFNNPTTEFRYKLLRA

SMILES | IC50 (ENL YEATS domain) | EC50 [1] | EC50 ([1]; Homo sapiens, 288 h)
CC(O)c1ncc2cc(C(=O)Nc3cc4[nH]c([C@H]5CCCN5C)cc4cn3)ccn12 (stereo partly drawn) [Example 4, 3-(1-hydroxyethyl)-N-(2-((R)-1-methylpyrrolidin-2-yl)-1H-pyrrolo[3,2-c]pyridin-6-yl) imidazo[1,5-a]pyridine-7-carboxamide] | 203 nM | 4370 nM | –
Cc1nc2cc(C(=O)Nc3cc4[nH]c([C@H]5CCCN5C)cc4cn3)ccc2[nH]1 [Example 61] | 90 nM | – | 2860 nM
CN1CCCC[C@@H]1c1cc2cnc(NC(=O)c3ccc4c(ccc(=O)n4C)c3)cc2[nH]1 [Example 99, (R)-1-methyl-N-(2-(1-methylpiperidin-2-yl)-1H-pyrrolo[3,2-c]pyridin-6-yl)-2-oxo-1,2-dihydroquinoline-6-carboxamide] | 56 nM | – | 293 nM
CN1CCCC[C@@H]1c1cc2cnc(NC(=O)c3ccc4c(F)nn(C)c4c3)cc2[nH]1 [Example 81, (R)-3-fluoro-1-methyl-N-(2-(1-methylpiperidin-2-yl)-1H-pyrrolo[3,2-c]pyridin-6-yl)-1H-indazole-6-carboxamide] | 51 nM | – | 292 nM
Cc1ncc2cc(C(=O)Nc3cc4[nH]c([C@H]5CCCN5C)cc4cn3)ccn12 [Example 42] | 84 nM | – | 117 nM
CN1CCC[C@@H]1c1cc2cnc(NC(=O)c3ccc4[nH]nc(C(F)(F)F)c4c3)cc2[nH]1 [Example 33] | 42 nM | – | 1780 nM
CN1CCCC[C@@H]1c1cc2cnc(NC(=O)c3ccc4ncn(C)c(=O)c4c3)cc2[nH]1 [Example 102, (R)-3-methyl-N-(2-(1-methylpiperidin-2-yl)-1H-pyrrolo[3,2-c]pyridin-6-yl)-4-oxo-3,4-dihydroquinazoline-6-carboxamide] | 200 nM | – | 289 nM
CN1CCC[C@@H]1c1cc2cnc(NC(=O)c3ccc4ccn(C)c4c3)cc2[nH]1 [Example 62] | 465 nM | – | 597 nM
CN1CCC[C@@H]1c1cc2cnc(NC(=O)c3ccc4c(c3)nnn4C)cc2[nH]1 [Example 57] | 106 nM | – | > 30000 nM
CN1CCCC[C@@H]1c1cc2cnc(NC(=O)c3ccc4c(=O)n(C)cnc4c3)cc2[nH]1 [Example 101, (R)-3-methyl-N-(2-(1-methylpiperidin-2-yl)-1H-pyrrolo[3,2-c]pyridin-6-yl)-4-oxo-3,4-dihydroquinazoline-7-carboxamide] | 177 nM | – | 426 nM
CN1C(=O)COc2cc(C(=O)Nc3cc4[nH]c([C@H]5CCCCN5C)cc4cn3)ccc21 [Example 105, (R)-4-methyl-N-(2-(1-methylpiperidin-2-yl)-1H-pyrrolo[3,2-c]pyridin-6-yl)-3-oxo-3,4-dihydro-2H-benzo[b][1,4]oxazine-7-carboxamide] | 145 nM | – | 416 nM
Cc1ncn2cc(C(=O)Nc3cc4[nH]c([C@H]5CCCN5C)cc4cn3)ccc12 [Example 32] | 58 nM | – | 12200 nM
CN1CCC[C@@H]1c1cc2cnc(NC(=O)c3ccc4c(ccn4C)c3)cc2[nH]1 [Example 60] | 148 nM | – | 298 nM
Cc1cnn2ccc(C(=O)Nc3cc4[nH]c([C@H]5CCCN5C)cc4cn3)cc12 [Example 36] | 43 nM | – | 853 nM
CN1CCC[C@@H]1c1cc2cnc(NC(=O)c3ccc4ncn(C)c4c3)cc2[nH]1 [Example 63] | 95 nM | – | 7020 nM
CN1CCCC[C@@H]1c1cc2cnc(NC(=O)c3ccc4c(c3)N(C)S(=O)(=O)C4)cc2[nH]1 [Example 96] | 250 nM | – | 319 nM
Cc1[nH]c2ccc(C(=O)Nc3cc4[nH]c([C@H]5CCCN5C)cc4cn3)cc2c1C [Example 58] | 208 nM | – | 8580 nM
Cc1noc2cc(C(=O)Nc3ccc4nc([C@H]5CCCN5C)[nH]c4c3)c(F)cc12 [Example 14] | 178 nM | – | 4640 nM
CN1CCC[C@@H]1c1cc2cnc(NC(=O)c3ccc4c(cnn4C)c3)cc2[nH]1 [Example 49] | 26 nM | – | 1440 nM
Cc1ncc2c(F)c(C(=O)Nc3cnc4cc([C@H]5CCCN5C)[nH]c4c3)ccn12 [Example 75] | 126 nM | – | 2410 nM

SMILES | IC50 (ENL YEATS domain) | EC50 [1] | EC50 ([1]; Homo sapiens, 288 h)
CC(C)c1ncc2cc(C(=O)Nc3cc4[nH]c([C@H]5CCCN5C)cc4cn3)ccn12 [Example 67] | 75 nM | – | 38 nM
CN1CCC[C@@H]1c1cc2cnc(NC(=O)c3ccc4c(C(F)(F)F)ncn4c3)cc2[nH]1 [Example 37] | 55 nM | – | 47 nM
Cc1nn(C)c2ccc(C(=O)Nc3cc4[nH]c([C@H]5CCCCN5C)cc4cn3)cc12 [Example 87] | 47 nM | – | 172 nM
Cc1nnn2cc(C(=O)Nc3cc4[nH]c([C@H]5CCCN5C)cc4cn3)ccc12 [Example 64] | 91 nM | – | 773 nM
Cc1cnn2cc(C(=O)Nc3cc4[nH]c([C@H]5CCCN5C)cc4cn3)ccc12 [Example 34] | 48 nM | – | 570 nM
CNc1c(OC)cnc2cc(C(=O)Nc3cc4[nH]c([C@H]5CCCN5C)cc4cn3)ccc12 [Example 47] | 28 nM | – | 745 nM
CN1CCC[C@@H]1c1cc2cnc(NC(=O)c3ccn4ccnc4c3)cc2[nH]1 [Example 45] | 293 nM | – | 6950 nM
CN1CCC[C@@H]1c1nc2cc(NC(=O)c3cc4cnn(-c5ccncc5)c4cc3F)ccc2[nH]1 [Example 7, (R)-6-fluoro-N-(2-(1-methylpyrrolidin-2-yl)-1H-benzo[d]imidazol-5-yl)-1-(pyridin-4-yl)-1H-indazole-5-carboxamide] | 142 nM | – | 101 nM
CN1CCC[C@@H]1c1cc2cnc(NC(=O)c3ccc4c(C5CC5)nn(C)c4c3)cc2[nH]1 [Example 29] | 21 nM | – | 1120 nM
COCCNc1nn(C)c2cc(C(=O)Nc3cc4[nH]c([C@H]5CCCN5C)cc4cn3)ccc12 [Example 51] | 100 nM | – | 1200 nM
Cc1nn(C)c2cc(C(=O)Nc3cc4[nH]c([C@H]5CCCN5C)cc4cn3)ccc12 [Example 40] | 34 nM | – | 88 nM
CN1CCC[C@@H]1c1cc2cnc(NC(=O)c3ccc4c(cnn4-c4ccncc4)c3)cc2[nH]1 [Example 84] | 31 nM | – | 134 nM
CN1CCC[C@@H]1c1cc2cnc(NC(=O)c3ccc4nnn(C)c4c3)cc2[nH]1 [Example 72] | 120 nM | – | 2570 nM
Cc1noc2cc(C(=O)Nc3cc4[nH]c([C@H]5CCCN5C)cc4cn3)ccc12 [Example 30] | 51 nM | – | 39 nM
CN1CCC[C@@H]1c1cc2cnc(NC(=O)c3ccc4[nH]nc(F)c4c3)cc2[nH]1 [Example 46] | 61 nM | – | 257 nM
Cc1n[nH]c2ccc(C(=O)Nc3cc4[nH]c([C@H]5CCCN5C)cc4cn3)cc12 [Example 31] | 57 nM | – | 91 nM
CN1CCC[C@@H]1c1cc2ncc(NC(=O)c3ccc4cnn(C5CC5)c4c3)cc2[nH]1 [Example 82] | 102 nM | – | 409 nM
Cc1ncc2ccc(C(=O)Nc3cc4[nH]c([C@H]5CCCCN5C)cc4cn3)cn12 [Example 89] | 175 nM | – | 252 nM
CN1CCC[C@@H]1c1cc2ncc(NC(=O)c3ccc4c(F)n[nH]c4c3F)cc2[nH]1 [Example 74] | 79 nM | – | 1420 nM
CN1CCC[C@@H]1c1cc2cnc(NC(=O)c3ccc4[nH]nc(Cl)c4c3)cc2[nH]1 [Example 43] | 37 nM | – | 256 nM
